Measured values as given in patent US7582675B2, “Flavonoid compound and process for producing the same” (Pokka Corporation, priority 2001, dated 2009).
“Also recorded” adds a separate entry of the source.

Assays:
solubility = type: physicochemical
[1] = radical scavenging ability measurement (DPPH), antioxidative activity in a hydrophilic solvent; type: biochemical; details: samples 0.1, 1 and 10 μM, 20 minutes at room temperature, FIG. 1
Protocol: The antioxidative activity in a hydrophilic solvent was measured for hesperidin (HE) and the isolated 8-hydroxyhesperetin (8OH-HE). It should be noted that antioxidative activity was measured in accordance with the radical scavenging ability measurement method described in Yamaguchi, et al., Biosci. Biotechnol. Biochem., 62, 1201-1204, 1998. More specifically, an 8OH-HE sample solution and HE sample solution were first prepared having concentrations of 0.1 μM, 1 μM and 10 μM by dissolving 8OH-HE or HE in ethanol. 200 μL of each sample solution was then mixed into 800 μL of 0.1 M Tris-HCl buffer (pH 7.4). 1 ml of 500 μM DPPH (1,1-diphenyl-2-picrylhydrazyl) in ethanol was added to each mixture to prepare reaction solutions. After adequately mixing the reaction solutions, they were allowed to react for 20 minutes in a dark location at room temperature. Next, 20 μL of each reaction solution was injected into an analytical HPLC system (LC-10A) using a microsyringe to analyze the DPPH concentration. The DPPH concentration was calculated from peak area of DPPH. […] Using 200 μL of a solution of ethanol only instead of the sample solutions for the control, the peak area of DPPH was similarly measured for the control by HPLC analysis. The radical scavenging activity (%) of 8OH-HE and HE were then determined according to the calculation formula indicated in Formula 1. […]

[2] = antioxidative action (general statement, no test named); details: general statement in the description
[3] = lipid peroxidation of methyl linoleate by HPLC, antioxidative activity in a hydrophobic solvent; type: biochemical; details: 100 μM sample solutions, 40° C. for 18 hours, FIG. 2, listed as 8OH-HE
Protocol: The antioxidative activity in a hydrophobic solvent was measured for hesperidin (HE), isolated 8-hydroxyhesperetin (8OH-HE) and α-tocopherol (Toc), a compound that is known to have a high level of antioxidative activity. Incidentally, antioxidative activity was measured by HPLC analysis using methyl linoleate as described in Terao J., et al., Lipids, 21(4), 255-260, 1986.
More specifically, an 8OH-HE sample solution, HE sample solution and Toc sample solution having concentrations of 100 μM were first prepared by dissolving 8OH-HE, HE and Toc in ethanol. 89 mg (100 μL) aliquots of methyl linoleate were each weighed into three small test tubes having an inner diameter of 14 mm. 100 μL of each sample solution was added to the three test tubes and mixed well to prepare mixtures.
Next, each of the mixtures was dried by completely removing the solvent by placing each test tube in a vacuum desiccator in which pressure was reduced using a vacuum pump. […] The sum of the HPLC peak areas of 13-hydroperoxide and 9-hydroperoxide formed by the methyl linoleate was then determined.
Moreover, HPLC analysis was also performed using 100 μL of a solution of ethanol only instead of the sample solutions for the control. The sum of the HPLC peak areas of the control was also determined. The degree of lipid peroxidation (%) of each sample was then determined from Formula 2. […]

Compound | saturation concentration (solubility limit) in the medium (solubility; culture medium, varies with the amount of organic solvent added) [% by weight] | antioxidative activity (radical scavenging activity) [1] | antioxidative action [2] | antioxidative action ([2]; listed as 8-Hydroxyhesperetin) | solubility in methanol, ethanol and dimethyl sulfoxide (DMSO) (solubility; methanol, ethanol, DMSO) | solubility in water (solubility; water) | antioxidative activity (degree of lipid peroxidation) [3]
COc1ccc([C@@H]2CC(=O)c3c(O)cc(O[C@@H]4O[C@H](CO[C@@H]5O[C@@H](C)[C@H](O)[C@@H](O)[C@H]5O)[C@@H](O)[C@H](O)[C@H]4O)cc3O2)cc1O [hesperidin, reference compound] | ≤ 0.3 |  |  |  |  |  | 
COc1ccc(C2CC(=O)c3c(O)cc(O)c(O)c3O2)cc1O (stereo not shown) [8-hydroxyhesperetin, 3′,5,7,8-tetrahydroxy-4′-methoxyflavonone] |  | much higher level of antioxidative activity than HE | extremely high level of antioxidative action comparable to that of α-tocopherol | remarkably high antioxidative action as compared with hesperidin and hesperetin | easily dissolves | somewhat soluble | much higher level of antioxidative activity than HE; also recorded: antioxidative activity that was comparable to α-tocopherol
